Measurements from ChEMBL document CHEMBL1201861, “Genomics of Drug Sensitity in Cancer screening data, Wellcome Trust Sanger Institute”.

Experiments:
Test in all cases: cells
[1] = test system: P30-OHK; format: functional, cell-based; conditions: Homo sapiens;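 further: growth inhibition of the P30-OHK cell line, read out with a cell viability assay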
Description: SANGER: Inhibition of human P30-OHK cell growth in a cell viability assay.

[2] = test system: BV-173; format: functional, cell-based; conditions: Homo sapiens
Description: SANGER: Inhibition of human BV-173 cell growth in a cell viability assay.

[3] = test system: GB-1; format: functional, cell-based, Homo sapiens; conditions: Homo sapiens, GB-1;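 further: growth of GB-1 cells judged by a viability assay, IC50 marks the concentration inhibiting growth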
Description: SANGER: Inhibition of human GB-1 cell growth in a cell viability assay.

[4] = test system: KGN; format: functional, cell-based, Homo sapiens; conditions: Homo sapiens, KGN;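 further: growth inhibition of KGN cells, read out with a cell viability assay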
[5] = test system: MMAC-SF; format: functional, cell-based, Homo sapiens; conditions: Homo sapiens, MMAC-SF;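 further: growth inhibition of human MMAC-SF cells, read out with a cell viability assay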
Description: SANGER: Inhibition of human MMAC-SF cell growth in a cell viability assay.

[6] = test system: NCI-H526; format: functional, cell-based; conditions: Homo sapiens;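 further: growth inhibition of the human NCI-H526 cell line, measured by a cell viability assay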
Description: SANGER: Inhibition of human NCI-H526 cell growth in a cell viability assay.

[7] = test system: MFM-223; format: functional, cell-based, Homo sapiens; conditions: Homo sapiens, MFM-223
Description: SANGER: Inhibition of human MFM-223 cell growth in a cell viability assay.

[8] = test system: JVM-3; format: functional, cell-based; conditions: Homo sapiens;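 further: growth inhibition of human JVM-3 cells, read out with a cell viability assay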
Description: SANGER: Inhibition of human JVM-3 cell growth in a cell viability assay.

[9] = test system: TE-10; format: functional, cell-based, Homo sapiens; conditions: Homo sapiens, TE-10;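 further: growth inhibition of TE-10 cells, measured by a cell viability assay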
[10] = test system: NCI-H1155; format: functional, cell-based; conditions: Homo sapiens;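 further: cell growth inhibition measured by a viability assay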
Description: SANGER: Inhibition of human NCI-H1155 cell growth in a cell viability assay.

[11] = test system: SK-MEL-1; format: functional, cell-based; conditions: Homo sapiens;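 further: growth inhibition of human SK-MEL-1 cells, read out by a cell viability assay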
Description: SANGER: Inhibition of human SK-MEL-1 cell growth in a cell viability assay.

[12] = test system: GAMG; format: functional, cell-based, Homo sapiens; conditions: Homo sapiens, GAMG;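 further: cell growth inhibition measured by a viability assay in the GAMG human cell line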
Description: SANGER: Inhibition of human GAMG cell growth in a cell viability assay.

[13] = test system: J82; format: functional, cell-based; conditions: Homo sapiens;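 further: growth inhibition of J82 cells, read out with a cell viability assay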
Description: SANGER: Inhibition of human J82 cell growth in a cell viability assay.

[14] = test system: ML-2; format: functional, cell-based; conditions: Homo sapiens;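 further: growth inhibition of ML-2 cells, measured with a cell viability readout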
Description: SANGER: Inhibition of human ML-2 cell growth in a cell viability assay.

[15] = test system: SW1417; format: functional, cell-based, Homo sapiens; conditions: Homo sapiens, SW1417;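 further: growth inhibition of human SW1417 cells, read out with a cell viability assay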
Description: SANGER: Inhibition of human SW1417 cell growth in a cell viability assay.

[16] = test system: SF-295; format: functional, cell-based, Homo sapiens; conditions: Homo sapiens, SF-295; read-out: IC50;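 further: growth inhibition of SF-295 cells, read out with a cell viability assay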
Description: SANGER: Inhibition of human SF295 cell growth in a cell viability assay.

[17] = test system: OAW-42; format: functional, cell-based, Homo sapiens; conditions: Homo sapiens, OAW-42;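 further: growth inhibition of OAW-42 cells, read out with a cell viability assay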
Description: SANGER: Inhibition of human OAW-42 cell growth in a cell viability assay.

[18] = test system: LB2241-RCC; format: functional, cell-based, Homo sapiens; conditions: Homo sapiens, LB2241-RCC;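 further: cell viability assay measuring how strongly the cultured human renal carcinoma line is prevented from growing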
Description: SANGER: Inhibition of human LB2241-RCC cell growth in a cell viability assay.

[19] = test system: KYSE-410; format: functional, cell-based, Homo sapiens; conditions: Homo sapiens, KYSE-410;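 further: growth inhibition of KYSE-410 cells, measured through a cell viability readout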
Description: SANGER: Inhibition of human KYSE-410 cell growth in a cell viability assay.

[20] = test system: NCI-H2087; format: functional, cell-based, Homo sapiens; conditions: Homo sapiens, NCI-H2087;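 further: growth inhibition determined with a cell viability readout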
Description: SANGER: Inhibition of human NCI-H2087 cell growth in a cell viability assay.

[21] = test system: LCLC-97TM1; format: functional, cell-based, Homo sapiens; conditions: Homo sapiens, LCLC-97TM1;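 further: cell viability assay measuring growth inhibition of human LCLC-97TM1 cells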
Description: SANGER: Inhibition of human LCLC-97TM1 cell growth in a cell viability assay.

[22] = test system: A2780; format: functional, cell-based, Homo sapiens; conditions: Homo sapiens, A2780;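 further: growth inhibition of A2780 cells, read out with a cell viability assay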
Description: SANGER: Inhibition of human A2780 cell growth in a cell viability assay.

[23] = test system: A-431; format: functional, cell-based, Homo sapiens; conditions: Homo sapiens, A-431;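 further: growth inhibition of A-431 cells, determined with a cell viability read-out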
Description: SANGER: Inhibition of human A431 cell growth in a cell viability assay.

[24] = test system: LOX IMVI; format: functional, cell-based; conditions: Homo sapiens
Description: SANGER: Inhibition of human LOXIMVI cell growth in a cell viability assay.

[25] = test system: NB12; format: functional, cell-based, Homo sapiens; conditions: Homo sapiens, NB12;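 further: growth inhibition of human NB12 cells, read out by a cell viability assay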
Description: SANGER: Inhibition of human NB12 cell growth in a cell viability assay.

[26] = test system: NCI-H1770; format: functional, cell-based; conditions: Homo sapiens;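 further: growth inhibition of NCI-H1770 cells determined with a viability readout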
Description: SANGER: Inhibition of human NCI-H1770 cell growth in a cell viability assay.

[27] = test system: DK-MG; format: functional, cell-based, Homo sapiens; conditions: Homo sapiens, DK-MG;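 further: growth inhibition of DK-MG cells, read out with a cell viability assay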
Description: SANGER: Inhibition of human DK-MG cell growth in a cell viability assay.

[28] = test system: MDA-MB-453; format: functional, cell-based, Homo sapiens; conditions: Homo sapiens, MDA-MB-453
Description: SANGER: Inhibition of human MDA-MB-453 cell growth in a cell viability assay.

[29] = test system: GAK; format: functional, cell-based, Homo sapiens; conditions: Homo sapiens, GAK;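 further: cell growth inhibition read out by a cell viability assay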
Description: SANGER: Inhibition of human GAK cell growth in a cell viability assay.

[30] = test system: ACN; format: functional, cell-based, Homo sapiens; conditions: Homo sapiens, ACN;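 further: growth inhibition of the human ACN cell line, read out via cell viability testing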
Description: SANGER: Inhibition of human ACN cell growth in a cell viability assay.

[31] = test system: YAPC; format: functional, cell-based, Homo sapiens; conditions: Homo sapiens, YAPC;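 further: growth inhibition of YAPC cells, measured with a cell viability assay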
Description: SANGER: Inhibition of human YAPC cell growth in a cell viability assay.

[32] = test system: NCI-H209; format: functional, cell-based; conditions: Homo sapiens;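 further: growth inhibition of human NCI-H209 cells, measured by a cell viability assay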
Description: SANGER: Inhibition of human NCI-H209 cell growth in a cell viability assay.

[33] = test system: CAL-72; format: functional, cell-based, Homo sapiens; conditions: Homo sapiens, CAL-72;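 further: cell viability assay measuring inhibition of proliferation in the CAL-72 cell line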
Description: SANGER: Inhibition of human CAL-72 cell growth in a cell viability assay.

[34] = test system: GCT; format: functional, cell-based, Homo sapiens; conditions: Homo sapiens, GCT;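 further: GCT cell line proliferation inhibition, read out with a cell viability assay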
Description: SANGER: Inhibition of human GCT cell growth in a cell viability assay.

[35] = test system: LB373-MEL-D; format: functional, cell-based, Homo sapiens; conditions: Homo sapiens, LB373-MEL-D;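 further: growth inhibition of the cell line, read out in a cell viability assay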
Description: SANGER: Inhibition of human LB373-MEL-D cell growth in a cell viability assay.

[36] = test system: MV4-11; format: functional, cell-based, MV-4-11; conditions: Homo sapiens;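 further: cell viability readout measuring growth inhibition of human MV-4-11 cells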
Description: SANGER: Inhibition of human MV-4-11 cell growth in a cell viability assay.

[37] = test system: DBTRG-05MG; format: functional, cell-based, Homo sapiens; conditions: Homo sapiens, DBTRG-05MG;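 further: cell viability assay measuring growth inhibition of human DBTRG-05MG cells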
Description: SANGER: Inhibition of human DBTRG-05MG cell growth in a cell viability assay.

[38] = test system: HuP-T4; format: functional, cell-based, Homo sapiens; conditions: Homo sapiens, HuP-T4;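 further: cell viability assay measuring how much HuP-T4 cell growth is inhibited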
Description: SANGER: Inhibition of human HuP-T4 cell growth in a cell viability assay.

[39] = test system: L-363; format: functional, cell-based; conditions: Homo sapiens
Description: SANGER: Inhibition of human L-363 cell growth in a cell viability assay.

[40] = test system: HOS; format: functional, cell-based, Homo sapiens; conditions: Homo sapiens, HOS;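 further: growth inhibition of human HOS cells, read out with a cell viability assay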
Description: SANGER: Inhibition of human HOS cell growth in a cell viability assay.

[41] = test system: KM-H2; format: functional, cell-based; conditions: Homo sapiens;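 further: growth inhibition of KM-H2 cells, read out by a cell viability assay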
Description: SANGER: Inhibition of human KM-H2 cell growth in a cell viability assay.

[42] = test system: NCI-H1648; format: functional, cell-based, Homo sapiens; conditions: Homo sapiens, NCI-H1648;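 further: cell viability assay measuring inhibition of NCI-H1648 cell growth, from the Sanger screening data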
Description: SANGER: Inhibition of human NCI-H1648 cell growth in a cell viability assay.

[43] = test system: KMOE-2; format: functional, cell-based; conditions: Homo sapiens;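 further: growth inhibition of human KMOE-2 cells, read out with a cell viability assay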
Description: SANGER: Inhibition of human KMOE-2 cell growth in a cell viability assay.

[44] = test system: RS4-11; format: functional, cell-based; conditions: Homo sapiens;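 further: growth inhibition of RS4-11 cells, read out by a cell viability assay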
Description: SANGER: Inhibition of human RS4-11 cell growth in a cell viability assay.

[45] = test system: HCE-4; format: functional, cell-based, Homo sapiens; conditions: Homo sapiens, HCE-4;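 further: cell viability assay measuring inhibition of growth in the human HCE-4 cell line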
Description: SANGER: Inhibition of human HCE-4 cell growth in a cell viability assay.

[46] = test system: SH-4; format: functional, cell-based, Homo sapiens; conditions: Homo sapiens, SH-4;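 further: growth inhibition of SH-4 cells, read out with a cell viability assay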
Description: SANGER: Inhibition of human SH-4 cell growth in a cell viability assay.

[47] = test system: Becker; format: functional, cell-based, Homo sapiens; conditions: Homo sapiens, Becker;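 further: growth inhibition of Becker cells, read out with a cell viability assay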
Description: SANGER: Inhibition of human Becker cell growth in a cell viability assay.

[48] = test system: CAL-62; format: functional, cell-based, Homo sapiens; conditions: Homo sapiens, CAL-62;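 further: growth inhibition of CAL-62 cells, read out with a cell viability assay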
Description: SANGER: Inhibition of human CAL-62 cell growth in a cell viability assay.

[49] = test system: DJM-1; format: functional, cell-based, Homo sapiens; conditions: Homo sapiens, DJM-1;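 further: growth inhibition of human DJM-1 cells, read out by a cell viability assay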
Description: SANGER: Inhibition of human DJM-1 cell growth in a cell viability assay.

[50] = test system: KARPAS-299; format: functional, cell-based; conditions: Homo sapiens
Description: SANGER: Inhibition of human KARPAS-299 cell growth in a cell viability assay.

[51] = test system: ChaGo-K-1; format: functional, cell-based; conditions: Homo sapiens;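 further: growth inhibition of ChaGo-K-1 cells, read out with a cell viability assay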
Description: SANGER: Inhibition of human ChaGo-K-1 cell growth in a cell viability assay.

[52] = test system: SCH; format: functional, cell-based, Homo sapiens; conditions: Homo sapiens, SCH;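 further: growth inhibition of human SCH cells, read out in a cell viability assay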
Description: SANGER: Inhibition of human SCH cell growth in a cell viability assay.

[53] = test system: HC-1; format: functional, cell-based; conditions: Homo sapiens;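 further: growth inhibition of HC-1 cells measured by a cell viability assay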
Description: SANGER: Inhibition of human HC-1 cell growth in a cell viability assay.

Cn1cncc1[C@@](N)(c1ccc(Cl)cc1)c1ccc2c(c1)c(-c1cccc(Cl)c1)cc(=O)n2C [TIPIFARNIB]
IC50 [1]: 0.264 µM
IC50 [2]: 2.38 µM
IC50 [3]: 3.7 µM
IC50 [4]: 0.452 µM
IC50 [5]: 13.7 µM
IC50 [6]: > 16 µM
IC50 [7]: > 16 µM
IC50 [8]: > 16 µM
IC50 [9]: 0.812 µM
IC50 [10]: > 16 µM
IC50 [11]: > 16 µM
IC50 [12]: 8.92 µM
IC50 [13]: 4.18 µM
IC50 [14]: < 0.0625 µM
IC50 [15]: > 16 µM
IC50 [16]: 2.16 µM
IC50 [17]: 0.956 µM
IC50 [18]: 6.16 µM
IC50 [19]: 3.5 µM
IC50 [20]: 2.28 µM
IC50 [21]: 2.3 µM
IC50 [22]: 3.3 µM
IC50 [23]: 0.655 µM
IC50 [24]: > 16 µM
IC50 [25]: 7.99 µM
IC50 [26]: > 16 µM
IC50 [27]: > 16 µM
IC50 [28]: > 16 µM
IC50 [29]: 3.8 µM
IC50 [30]: 1.46 µM
IC50 [31]: > 16 µM
IC50 [32]: > 16 µM
IC50 [33]: 4.95 µM
IC50 [34]: > 16 µM
IC50 [35]: 8.85 µM
IC50 [36]: 0.733 µM
IC50 [37]: 14.4 µM
IC50 [38]: 3.03 µM
IC50 [39]: > 16 µM
IC50 [40]: 4.1 µM
IC50 [41]: > 16 µM
IC50 [42]: 2.56 µM
IC50 [43]: 5.18 µM
IC50 [44]: 1.94 µM
IC50 [45]: 3.04 µM
IC50 [46]: 1.3 µM
IC50 [47]: 6.4 µM
IC50 [48]: 1.79 µM
IC50 [49]: > 16 µM
IC50 [50]: > 16 µM
IC50 [51]: 1.75 µM
IC50 [52]: > 16 µM
IC50 [53]: 1.75 µM

C[C@]1(O)C[C@@H](c2nc(-c3ccc4ccc(-c5ccccc5)nc4c3)c3c(N)nccn32)C1 [LINSITINIB]
IC50 [1]: > 2.56 µM
IC50 [2]: > 2.56 µM
IC50 [3]: > 2.56 µM
IC50 [4]: > 2.56 µM
IC50 [5]: > 2.56 µM
IC50 [6]: > 2.56 µM
IC50 [7]: > 2.56 µM
IC50 [8]: > 2.56 µM
IC50 [9]: > 2.56 µM
IC50 [10]: > 2.56 µM
IC50 [11]: > 2.56 µM
IC50 [12]: > 2.56 µM
IC50 [13]: > 2.56 µM
IC50 [14]: 0.159 µM
IC50 [15]: > 2.56 µM
IC50 [16]: > 2.56 µM
IC50 [17]: > 2.56 µM
IC50 [18]: > 2.56 µM
IC50 [19]: > 2.56 µM
IC50 [20]: > 2.56 µM
IC50 [21]: 0.21 µM
IC50 [22]: > 2.56 µM
IC50 [23]: > 2.56 µM
IC50 [24]: > 2.56 µM
IC50 [25]: > 2.56 µM
IC50 [26]: 1.51 µM
IC50 [27]: > 2.56 µM
IC50 [28]: > 2.56 µM
IC50 [29]: > 2.56 µM
IC50 [30]: > 2.56 µM
IC50 [31]: > 2.56 µM
IC50 [32]: > 2.56 µM
IC50 [33]: > 2.56 µM
IC50 [34]: > 2.56 µM
IC50 [35]: > 2.56 µM
IC50 [36]: > 2.56 µM
IC50 [37]: > 2.56 µM
IC50 [38]: > 2.56 µM
IC50 [39]: 1.34 µM
IC50 [40]: > 2.56 µM
IC50 [41]: > 2.56 µM
IC50 [42]: > 2.56 µM
IC50 [43]: > 2.56 µM
IC50 [44]: 0.338 µM
IC50 [45]: > 2.56 µM
IC50 [46]: > 2.56 µM
IC50 [47]: > 2.56 µM
IC50 [48]: > 2.56 µM
IC50 [49]: > 2.56 µM
IC50 [50]: > 2.56 µM
IC50 [51]: > 2.56 µM
IC50 [52]: > 2.56 µM
IC50 [53]: > 2.56 µM

Cc1ccc(Nc2nccc(N(C)c3ccc4c(C)n(C)nc4c3)n2)cc1S(N)(=O)=O [PAZOPANIB]
IC50 [1]: 5.47 µM
IC50 [2]: > 8 µM
IC50 [3]: 5.73 µM
IC50 [4]: 4.07 µM
IC50 [5]: > 8 µM
IC50 [6]: > 8 µM
IC50 [7]: > 8 µM
IC50 [8]: > 8 µM
IC50 [9]: > 8 µM
IC50 [10]: > 8 µM
IC50 [11]: > 8 µM
IC50 [12]: 6.18 µM
IC50 [13]: 2.06 µM
IC50 [14]: > 8 µM
IC50 [15]: > 8 µM
IC50 [16]: > 8 µM
IC50 [17]: > 8 µM
IC50 [18]: > 8 µM
IC50 [19]: > 8 µM
IC50 [20]: > 8 µM
IC50 [21]: > 8 µM
IC50 [22]: > 8 µM
IC50 [23]: > 8 µM
IC50 [24]: > 8 µM
IC50 [25]: > 8 µM
IC50 [26]: > 8 µM
IC50 [27]: 5.72 µM
IC50 [28]: > 8 µM
IC50 [30]: > 8 µM
IC50 [31]: > 8 µM
IC50 [32]: > 8 µM
IC50 [33]: 5.94 µM
IC50 [34]: > 8 µM
IC50 [35]: > 8 µM
IC50 [36]: 1.35 µM
IC50 [37]: > 8 µM
IC50 [38]: > 8 µM
IC50 [39]: > 8 µM
IC50 [40]: > 8 µM
IC50 [41]: > 8 µM
IC50 [42]: > 8 µM
IC50 [43]: > 8 µM
IC50 [44]: > 8 µM
IC50 [45]: > 8 µM
IC50 [46]: > 8 µM
IC50 [47]: > 8 µM
IC50 [48]: > 8 µM
IC50 [49]: > 8 µM
IC50 [50]: > 8 µM
IC50 [51]: > 8 µM
IC50 [52]: > 8 µM
IC50 [53]: > 8 µM
